Experimental findings from US8796268B2, “Heteroaryls and uses thereof” (Millennium Pharmaceuticals, Inc., priority 2010, dated 2014) are described below.

Broadly, the inhibition is the drop in the measured response relative to a control, in per cent.

Counter-ions that a name gives are not always drawn.

What all share (format): biochemical
One assay has as its target T1, Human PI3K gamma (Homo sapiens, UniProt P48736).
T1 construct: His (N); host or cells: SF9 insect cells (baculovirus)
In words: Human PI3K gamma enzyme assay (HTRF). The settings on record: at a 1.0 μM concentration; read-out: PI3Kγ Percent Inhibition. An outline of the steps:
(§1)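 Compounds were mixed with 25 uM ATP, then with 3.5 uM di-C8 PI(4,5)P2 and His-tagged PI3K isoform (β 5.25 nM, δ 0.75 nM, γ 5 nM) at pH 7.00. After 30 min at room temperature, EDTA stopped the reaction and PIP3 was measured by HTRF over 1 h.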

A further assay deals with T2, Human VPS34 (Homo sapiens, UniProt Q8NEB9).
T2 construct: GST (with thrombin site, pDEST20-Thrombin) (N); host or cells: SF9 insect cells (baculovirus)
Briefly: Human VPS34 enzyme assay (Adapta Universal Kinase Assay). Particulars: at a 1.0 μM concentration; read-out: VPS34 Percent Inhibition. The text has this:
The catalytic subunits of PI3Ks are cloned into either pDEST8(p110 alpha) or pDEST10(p110beta, p110delta, and p110gamma) as N-terminal His tagged fusion proteins using the Gateway system (Invitrogen, catalog#11804-010 for pDEST8 and 11806-015 for pDEST10). The sequences are verified before recombinant protein expression using the Baculovirus Expression System with Gateway® Technology. The accession numbers for the subunits are as follows: • p110 alpha (GB:U79143) • p110beta (GB: S67334) • p110delta (GB: U86453) • p110gamma (GB: X83368) • The regulatory subunits of PI3Ks are cloned into pDEST8 as un-tagged protein using the Gateway system (Catalog#11804-010). The sequences are verified before recombinant protein expression using the Baculovirus Expression System with Gateway® Technology. The accession numbers for the subunits are as following: • p85 alpha (GB: BC030815) • p101(GB: AB028925) • VPS34 (accession number GB:BC033004) is cloned into pDEST20—Thombin as N-terminal GST tagged fusion proteins using the Gateway system (Invitrogen, catalog#11804-013). The sequences are verified before recombinant protein expression using the Baculovirus Expression System with Gateway® Technology.
For expression VPS34 was infected at 1MOI in SF9 cells and harvested 72 hours post infection.
For purification, VPS34 is purified by Glutathione Sepharose 4 Fast Flow (GE Healthcare #17-5132-03) followed by HiTrap Q (GE Healthcare #17-1153-01).
3) VPS34 is assayed using Adapta™ Universal Kinase Assay Kit (Invitrogen).
4) Human VPS34 enzyme assay method
100 nL compounds in DMSO are added to wells of a 384 well microtitre plate (Greiner 780076). At room temperature: 5 ul VPS34 reaction buffer (Invitrogen Assay Buffer Q (diluted 1 in 5 with nanopure water) plus 2 mM DTT and 2 mM MnCl2) containing ATP (20 uM, Promega) and 200 uM PI—PS substrate (Invitrogen PV5122) is added followed immediately by 5 ul VPS34 reaction buffer (as above) containing VPS34 (5 nM, Millennium Protein Sciences Group) and the mixture is incubated with shaking at room temperature for 1 hour. Then 5 ul VPS34 stop-detect mix (as per Invitrogen Adapta Assay kit (PV5009) instructions (contains kinase quench buffer, TR-FRET buffer, Adapta Eu anti-ADP antibody and Alexa Fluor 647 ADP tracer)) is added to quench the reaction. The plates are then incubated for 30 minutes at room temperature with shaking and then read on a BMG PheraStar Plus reader.
For the assay methods described above, test compound percent inhibition, at various concentrations, is calculated relative to control (DMSO and EDTA) treated samples. Compound concentration versus percent inhibition curves are fitted to generate IC50 values. One skilled in the art will appreciate that the values generated either as percentage inhibition at a single concentration or IC50 values are subject to experimental variation.

The next assay deals with T3, Human PI3K alpha (Homo sapiens, UniProt P42336).
T3 construct: His (N); host or cells: SF9 insect cells (baculovirus)
Briefly: Human PI3K alpha enzyme assay (HTRF). Particulars: at a 1.1 μM concentration; read-out: PI3Kα Percent Inhibition. (Time-resolved FRET reads energy transfer from a long-lived donor to a nearby acceptor.)

Another assay deals with T4, Human PI3K delta (Homo sapiens, UniProt O00329).
T4 construct: His (N); host or cells: SF9 insect cells (baculovirus)
Briefly: Human PI3K delta enzyme assay (HTRF). Particulars: at a 1.0 μM concentration; read-out: PI3Kδ Percent Inhibition. An outline of the steps:
as §1

The target of the next assay is T5, Human PI3K beta (Homo sapiens, UniProt P42338).
T5 construct: His (N); host or cells: SF9 insect cells (baculovirus)
In words: Human PI3K beta enzyme assay (HTRF). The settings on record: at a 1.1 μM concentration; read-out: PI3β Percent Inhibition. Put shortly: as §1

T2 sequence (Q8NEB9 whole entry): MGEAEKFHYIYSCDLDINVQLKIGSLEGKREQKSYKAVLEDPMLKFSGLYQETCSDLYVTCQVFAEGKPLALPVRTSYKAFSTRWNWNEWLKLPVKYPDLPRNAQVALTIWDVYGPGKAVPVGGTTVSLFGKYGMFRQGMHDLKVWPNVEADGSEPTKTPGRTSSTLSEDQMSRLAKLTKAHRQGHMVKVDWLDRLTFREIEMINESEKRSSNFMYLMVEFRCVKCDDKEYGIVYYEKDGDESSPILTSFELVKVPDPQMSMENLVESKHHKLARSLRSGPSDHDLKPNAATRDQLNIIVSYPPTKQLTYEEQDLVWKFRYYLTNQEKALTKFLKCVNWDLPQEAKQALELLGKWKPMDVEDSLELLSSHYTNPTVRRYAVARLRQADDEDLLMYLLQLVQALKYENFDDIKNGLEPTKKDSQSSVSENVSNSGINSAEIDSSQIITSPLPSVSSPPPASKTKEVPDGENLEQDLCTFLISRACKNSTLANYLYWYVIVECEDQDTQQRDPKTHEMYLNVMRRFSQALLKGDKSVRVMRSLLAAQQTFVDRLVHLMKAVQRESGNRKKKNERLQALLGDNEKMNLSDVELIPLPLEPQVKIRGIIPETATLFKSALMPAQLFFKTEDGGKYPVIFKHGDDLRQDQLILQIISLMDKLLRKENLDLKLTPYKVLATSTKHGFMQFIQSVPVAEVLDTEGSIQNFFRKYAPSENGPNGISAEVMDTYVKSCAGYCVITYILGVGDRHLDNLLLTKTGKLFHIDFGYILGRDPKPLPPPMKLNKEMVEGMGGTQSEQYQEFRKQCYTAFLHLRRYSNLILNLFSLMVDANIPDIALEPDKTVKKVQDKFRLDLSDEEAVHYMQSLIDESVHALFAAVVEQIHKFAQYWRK
T4 sequence (O00329 whole entry): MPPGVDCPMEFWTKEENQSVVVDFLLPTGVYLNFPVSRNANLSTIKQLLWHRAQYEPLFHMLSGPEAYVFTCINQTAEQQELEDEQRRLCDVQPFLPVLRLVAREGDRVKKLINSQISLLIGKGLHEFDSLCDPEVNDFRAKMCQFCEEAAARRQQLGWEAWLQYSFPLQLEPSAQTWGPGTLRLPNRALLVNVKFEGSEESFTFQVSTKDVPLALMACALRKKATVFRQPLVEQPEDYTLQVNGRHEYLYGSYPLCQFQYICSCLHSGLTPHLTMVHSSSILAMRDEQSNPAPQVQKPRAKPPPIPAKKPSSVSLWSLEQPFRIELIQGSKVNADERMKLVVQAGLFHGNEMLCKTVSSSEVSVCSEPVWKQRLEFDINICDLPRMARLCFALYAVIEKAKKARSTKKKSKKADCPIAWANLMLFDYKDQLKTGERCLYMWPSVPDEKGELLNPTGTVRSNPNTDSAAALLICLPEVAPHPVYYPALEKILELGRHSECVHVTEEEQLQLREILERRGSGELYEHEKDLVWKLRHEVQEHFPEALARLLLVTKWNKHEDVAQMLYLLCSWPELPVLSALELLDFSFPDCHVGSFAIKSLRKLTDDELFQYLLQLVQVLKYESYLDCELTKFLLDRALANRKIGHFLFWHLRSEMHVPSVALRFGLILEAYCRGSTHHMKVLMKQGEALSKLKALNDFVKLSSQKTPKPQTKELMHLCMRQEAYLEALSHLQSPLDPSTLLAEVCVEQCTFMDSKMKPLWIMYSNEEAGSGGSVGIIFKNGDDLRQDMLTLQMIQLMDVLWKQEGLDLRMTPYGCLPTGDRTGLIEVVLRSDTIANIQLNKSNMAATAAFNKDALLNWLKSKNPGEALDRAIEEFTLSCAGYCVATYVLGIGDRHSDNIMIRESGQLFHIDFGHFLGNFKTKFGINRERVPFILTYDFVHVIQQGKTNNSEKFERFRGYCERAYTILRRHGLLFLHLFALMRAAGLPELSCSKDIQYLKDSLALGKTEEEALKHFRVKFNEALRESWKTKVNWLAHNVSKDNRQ
T4 sequence (P27986 whole entry partner): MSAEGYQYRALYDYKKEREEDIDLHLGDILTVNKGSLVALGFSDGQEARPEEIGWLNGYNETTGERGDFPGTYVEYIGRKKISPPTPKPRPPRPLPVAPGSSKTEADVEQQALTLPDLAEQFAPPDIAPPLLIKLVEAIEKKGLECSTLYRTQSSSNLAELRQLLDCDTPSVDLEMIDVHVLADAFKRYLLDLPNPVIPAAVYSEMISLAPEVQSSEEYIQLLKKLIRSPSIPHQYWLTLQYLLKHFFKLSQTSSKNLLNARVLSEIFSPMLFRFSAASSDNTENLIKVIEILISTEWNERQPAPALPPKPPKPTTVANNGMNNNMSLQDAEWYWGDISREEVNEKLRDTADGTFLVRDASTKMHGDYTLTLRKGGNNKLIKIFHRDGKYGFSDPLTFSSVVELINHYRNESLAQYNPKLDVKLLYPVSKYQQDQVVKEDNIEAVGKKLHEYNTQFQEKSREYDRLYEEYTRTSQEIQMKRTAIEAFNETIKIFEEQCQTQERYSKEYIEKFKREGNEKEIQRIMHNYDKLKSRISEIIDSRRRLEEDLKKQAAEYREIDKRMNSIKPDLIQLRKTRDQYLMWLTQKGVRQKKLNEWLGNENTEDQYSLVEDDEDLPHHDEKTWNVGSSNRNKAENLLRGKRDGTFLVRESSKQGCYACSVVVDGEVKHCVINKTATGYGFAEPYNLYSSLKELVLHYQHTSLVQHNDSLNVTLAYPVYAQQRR
T5 sequence (P42338 whole entry): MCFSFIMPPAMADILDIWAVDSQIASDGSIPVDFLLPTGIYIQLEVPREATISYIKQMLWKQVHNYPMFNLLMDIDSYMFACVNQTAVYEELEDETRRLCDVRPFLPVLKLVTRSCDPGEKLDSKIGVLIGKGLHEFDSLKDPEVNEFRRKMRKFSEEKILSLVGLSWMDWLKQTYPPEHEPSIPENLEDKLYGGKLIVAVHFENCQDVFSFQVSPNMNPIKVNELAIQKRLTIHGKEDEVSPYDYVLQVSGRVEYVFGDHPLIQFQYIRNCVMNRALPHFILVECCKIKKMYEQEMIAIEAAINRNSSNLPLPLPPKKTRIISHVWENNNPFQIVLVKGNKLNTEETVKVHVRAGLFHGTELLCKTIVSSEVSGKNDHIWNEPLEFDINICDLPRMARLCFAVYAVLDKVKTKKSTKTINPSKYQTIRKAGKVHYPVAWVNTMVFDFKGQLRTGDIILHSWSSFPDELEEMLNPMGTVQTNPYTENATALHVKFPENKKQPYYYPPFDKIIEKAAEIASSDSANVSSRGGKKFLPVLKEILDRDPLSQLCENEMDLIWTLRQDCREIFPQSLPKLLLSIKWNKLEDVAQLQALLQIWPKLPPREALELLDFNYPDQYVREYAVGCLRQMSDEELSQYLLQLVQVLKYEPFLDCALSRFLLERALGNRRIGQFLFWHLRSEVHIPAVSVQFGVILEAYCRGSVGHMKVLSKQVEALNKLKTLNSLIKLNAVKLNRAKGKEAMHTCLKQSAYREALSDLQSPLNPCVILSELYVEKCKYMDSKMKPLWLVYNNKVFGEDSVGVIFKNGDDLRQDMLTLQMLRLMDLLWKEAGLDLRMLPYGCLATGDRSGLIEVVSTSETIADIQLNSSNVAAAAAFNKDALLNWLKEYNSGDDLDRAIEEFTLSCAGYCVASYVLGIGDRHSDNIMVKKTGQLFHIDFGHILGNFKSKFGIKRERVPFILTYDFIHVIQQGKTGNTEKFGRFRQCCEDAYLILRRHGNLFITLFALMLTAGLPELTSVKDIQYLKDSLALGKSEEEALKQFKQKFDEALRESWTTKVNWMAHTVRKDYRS
T5 sequence (P27986 whole entry partner): as the sequence (P27986 whole entry partner) above
T1 sequence (P48736 whole entry): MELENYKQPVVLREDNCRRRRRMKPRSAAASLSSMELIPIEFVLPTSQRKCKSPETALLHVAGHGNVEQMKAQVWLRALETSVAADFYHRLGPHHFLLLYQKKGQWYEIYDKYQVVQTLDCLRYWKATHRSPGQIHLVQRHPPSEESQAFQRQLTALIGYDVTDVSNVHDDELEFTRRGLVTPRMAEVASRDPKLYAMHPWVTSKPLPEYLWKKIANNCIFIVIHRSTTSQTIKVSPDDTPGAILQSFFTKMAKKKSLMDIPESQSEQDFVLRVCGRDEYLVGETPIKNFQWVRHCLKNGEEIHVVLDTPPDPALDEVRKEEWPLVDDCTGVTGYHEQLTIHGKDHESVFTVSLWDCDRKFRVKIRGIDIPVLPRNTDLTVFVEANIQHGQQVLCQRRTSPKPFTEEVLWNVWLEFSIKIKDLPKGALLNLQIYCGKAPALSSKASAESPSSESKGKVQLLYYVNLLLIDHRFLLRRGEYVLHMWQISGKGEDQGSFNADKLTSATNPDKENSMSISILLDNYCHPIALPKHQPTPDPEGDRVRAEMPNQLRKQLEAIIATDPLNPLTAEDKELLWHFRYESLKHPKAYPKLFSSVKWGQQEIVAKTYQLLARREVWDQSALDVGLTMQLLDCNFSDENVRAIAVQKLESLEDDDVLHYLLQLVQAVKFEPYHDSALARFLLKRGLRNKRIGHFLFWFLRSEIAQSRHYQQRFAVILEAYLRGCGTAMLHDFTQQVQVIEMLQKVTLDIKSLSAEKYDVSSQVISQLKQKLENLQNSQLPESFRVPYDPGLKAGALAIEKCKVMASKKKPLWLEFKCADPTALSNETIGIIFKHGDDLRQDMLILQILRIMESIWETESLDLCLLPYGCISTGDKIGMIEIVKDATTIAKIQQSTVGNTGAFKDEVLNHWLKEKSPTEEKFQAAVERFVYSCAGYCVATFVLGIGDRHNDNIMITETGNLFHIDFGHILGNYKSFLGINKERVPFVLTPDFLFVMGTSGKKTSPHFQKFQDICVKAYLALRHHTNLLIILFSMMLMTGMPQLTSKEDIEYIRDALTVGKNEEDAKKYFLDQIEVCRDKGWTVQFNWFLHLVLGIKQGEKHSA

For the compound `N#Cc1c(C2=CCOCC2)sc(C(=O)O)c1Cc1ccc(Cl)cc1` [Compound 95, 3-(4-chlorobenzyl)-4-cyano-5-(3,6-dihydro-2H-pyran-4-yl)thiophene-2-carboxylic acid], the inhibition at 1 µM on Human PI3K gamma was 23.9%; on Human VPS34, 167%; on Human PI3K delta it was 86.1%. Also, the inhibition at 1.1 µM at Human PI3K alpha is 68%; at Human PI3K beta it was 101%.
On the same counts, the results for `N#Cc1c(N2CCOCC2)sc(C(=O)O)c1Cc1ccc(Cl)cc1Cl` [Compound 96] are 36.2%, 47.8%, 96%, 58% and 109%.
In the same order, the values of `N#Cc1c(N2CCOCC2)sc(C(=O)O)c1Cc1ccc(F)cc1` [Compound 97] are 17.8%, 45%, 89.8%, 53% and 101%.
On the same counts, the results for `O=C(O)c1sc(N2CCOCC2)nc1Cc1ccc2ccccc2c1` [Compound 98] are 67.6%, 68.9%, 108%, 58% and 111%.
For the compound `O=C(O)c1sc(N2CCOCC2)nc1Cc1ccc(F)cc1Cl` [Compound 99], the inhibition at 1 µM at Human PI3K gamma turned out to be 6.4%; at Human VPS34, 46.7%; at Human PI3K delta, 55.4%. Moreover, the inhibition at 1.1 µM at Human PI3K alpha came out at 12%; at Human PI3K beta, 72%.
For the compound `O=C(O)c1sc(C2=CCOCC2)nc1Cc1ccc(Cl)cc1` [Compound 100, 4-(4-chlorobenzyl)-2-(3,6-dihydro-2H-pyran-4-yl)-1,3-thiazole-5-carboxylic acid], the inhibition at 1 µM stood at 13.2% at Human PI3K gamma, 36.6% at Human VPS34 and 65.5% at Human PI3K delta. The inhibition at 1.1 µM was 20% at Human PI3K alpha and 98% at Human PI3K beta.
In the same order, the values of `COc1ccc(Cc2nc(N3CCOCC3)sc2C(=O)O)cc1` [Compound 103] are 6.4%, 7.2%, 38.6%, 2% and 71%.
In the same order, the values of `O=C(O)c1sc(N2CCOCC2)nc1Cc1ccc(Cl)cc1Cl` [Compound 104] are 28.8%, 63.2%, 93%, 26% and 109%.
As for `COc1ccc(Cc2c(C(=O)O)sc(N3CCOCC3)c2C#N)cc1` [Compound 105], the inhibition at 1 µM at Human PI3K gamma came to 9.8%; on Human VPS34, 22.6%; on Human PI3K delta, 51.2%. For the same compound, the inhibition at 1.1 µM at Human PI3K alpha came to 21%; on Human PI3K beta, 98%.
With `N#Cc1c(N2CCOCC2)sc(C(=O)O)c1Cc1ccc(Br)cc1` [Compound 106], the values for the inhibition at 1 µM on Human PI3K gamma, at Human VPS34 and on Human PI3K delta were 51.8%, 34.4% and 88.8%, respectively. For the same compound, the inhibition at 1.1 µM on Human PI3K alpha is 58%; on Human PI3K beta, 103%.
With `COc1ccc(Cc2c(C(=O)O)sc(N3CCOCC3)c2C#N)cc1Cl` [Compound 108], the inhibition at 1 µM at Human PI3K gamma worked out at 38.1%; at Human VPS34 it was 62.4%; on Human PI3K delta it was 99.6%. The inhibition at 1.1 µM at Human PI3K alpha was determined as 44%; at Human PI3K beta, 100%.
In the same order, the values of `O=C(O)c1sc(N2CCOCC2)nc1Cc1ccc(OC(F)(F)F)cc1` [Compound 109] are 3.9%, 24%, 35.4%, 6% and 76%.
On the same counts, the results for `O=C(O)c1sc(N2CCOCC2)nc1Cc1ccc(C(F)(F)F)cc1` [Compound 111] are 6.9%, 46.8%, 60.5%, 7% and 77%.
On the same counts, the results for `N#Cc1c(N2CCOCC2)sc(C(=O)O)c1Cc1ccc2ccccc2c1` [Compound 112] are 69%, 37.8%, 114%, 95% and 110%.
Regarding `N#Cc1c(N2CCOCC2)sc(C(=O)O)c1C(N)c1ccc(Cl)cc1` (centres unmarked) [Compound 113, 3-[amino(4-chlorophenyl)methyl]-4-cyano-5-(morpholin-4-yl)thiophene-2-carboxylic acid hydrochloride], the inhibition at 1 µM was determined as 32.5% on Human PI3K gamma, 18.1% at Human VPS34 and 78.8% on Human PI3K delta. The inhibition at 1.1 µM at Human PI3K alpha turned out to be 25%; on Human PI3K beta, 100%.
In the same order, the values of `O=C(O)c1sc(N2CCOCC2)nc1Cc1ccc(Cl)c(Cl)c1` [Compound 114] are 56.9%, 131%, 113%, 40% and 106%.
On the same counts, the results for `N#Cc1ccc(Cc2c(C(=O)O)sc(N3CCOCC3)c2C#N)cc1` [Compound 115] are 12%, 39.7%, 63%, 45% and 97%.
`N#Cc1c(N2CCOCC2)sc(C(=O)O)c1Cc1ccc(Cl)cc1` [Compound 116]: the inhibition at 1 µM at Human PI3K gamma worked out at 36.7%; at Human VPS34, 54.2%; at Human PI3K delta, 83%. Also, the inhibition at 1.1 µM is 46% at Human PI3K alpha and 98% at Human PI3K beta.
On the same counts, the results for `COc1ccc(Cc2c(C(=O)O)sc(N3CCOCC3)c2C#N)c(Cl)c1` [Compound 117] are 14.7%, 28.6%, 78.5%, 48% and 94%.
In the same order, the values of `O=C(O)c1sc(N2CCOCC2)nc1Cc1ccc(Cl)c(F)c1` [Compound 118, 4-(4-chloro-3-fluorobenzyl)-2-morpholin-4-yl-1,3-thiazole-5-carboxylic acid] are 27.5%, 68.2%, 89.3%, 28% and 104%.
On the same counts, the results for `O=C(O)c1sc(N2CCOCC2)nc1Cc1ccc(F)cc1` [Compound 119] are 7.6%, 19.5%, 62.6%, 9% and 88%.
Take `COc1ccc(Cc2nc(N3CCOCC3)sc2C(=O)O)c(Cl)c1` [Compound 120]: the inhibition at 1 µM amounted to 11% on Human PI3K gamma, 38.3% at Human VPS34 and 77% at Human PI3K delta. Besides, the inhibition at 1.1 µM on Human PI3K alpha turned out to be 18%; on Human PI3K beta, 97%.
